For one substance, Observation results are on record in patent US20140102978A1, “Composition and Method for Remediation of Contaminated Water” (JRW BIOREMEDIATION LLC, priority 2012, published 2014).

The data set is described as follows: Thiosulfate/Gluconate physical compatibility screening. In kind it is physicochemical. The following applies: heated to no more than 115° F, visual and olfactory. The source says: The final solution was stored at room temperature for 15 days and then examined to determine relative storage stability.

With ferrous gluconate, the Observation entry (1 g ferrous gluconate (Mole % 4%) added to 25 g sodium thiosulfate) is given as “Mild odor, dissolved when warmed”; the Observation entry (2 g ferrous gluconate (Mole % 7%) added to 25 g sodium thiosulfate) was “Mild odor, dissolved when warmed”; the Observation entry (3 g ferrous gluconate (Mole % 11%) added to 25 g sodium thiosulfate) was “Mod odor, dissolved when warmed”; the Observation result (4.5 g ferrous gluconate (Mole % 16%) added to 25 g sodium thiosulfate) is given as “Mod odor, dissolved when warmed”; the Observation result (5 g ferrous gluconate (Mole % 19%) added to 25 g sodium thiosulfate) is “Mod odor, dissolved when warmed”; the Observation result (6 g ferrous gluconate (Mole % 22%) added to 25 g sodium thiosulfate) was “Mod odor, dissolved when warmed”. Moreover, the Observation result (7 g ferrous gluconate (Mole % 26%) added to 25 g sodium thiosulfate) was “Mod odor, dissolved when warmed”; the Observation entry (8 g ferrous gluconate (Mole % 30%) added to 25 g sodium thiosulfate) is listed as “Mod odor, dissolved when warmed”; the Observation entry (9 g ferrous gluconate (Mole % 33%) added to 25 g sodium thiosulfate) is on record as “Mod odor, dissolved when warmed”; the Observation result (10 g ferrous gluconate (Mole % 37%) added to 25 g sodium thiosulfate) was “Mod odor, dissolved when warmed”; the Observation entry (14 g ferrous gluconate (Mole % 52%) added to 25 g sodium thiosulfate) is “Mod odor, dissolved when warmed”.
